According to PubChem BioAssay AID2060898 (Molecular Pharmacology Branch, DTP, NCI, 2025):
pIC50: −log10 of the molar value.

Test system: 616215-338-R-J1-PDC complex spheroid viability
Assay: Anticancer human tumor 616215-338-R-J1-PDC patient-derived colon adenocarcinoma cell line growth inhibition [RAS]
Conditions: for pIC50: curve of first compound; for viability, T/C: stronger effect = lower value; active = viability on the fitted dose curve at most 10% of control; inactive = the rest
In short: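 Tumour cells grown as complex spheroids with HUVEC endothelial cells and mesenchymal stem cells, treated with RAS pathway inhibitor combinations. Each agent spans half-log steps from near clinical Cmax, or 10 microM where Cmax is unknown.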

[1] = second compound 0.00316 µM, first compound 0.0316 µM
[2] = second compound 0.00316 µM, first compound 0.1 µM
[3] = second compound 0.00316 µM, first compound 0.316 µM
[4] = second compound 0.00316 µM, first compound 1 µM
[5] = second compound 0.00316 µM, first compound 3.16 µM
[6] = second compound 0.00316 µM, first compound 10 µM
[7] = second compound 0.01 µM, first compound 0.0316 µM
[8] = second compound 0.01 µM, first compound 0.1 µM
[9] = second compound 0.01 µM, first compound 0.316 µM
[10] = second compound 0.01 µM, first compound 1 µM
[11] = second compound 0.01 µM, first compound 3.16 µM
[12] = second compound 0.01 µM, first compound 10 µM
[13] = second compound 0.0316 µM, first compound 0.0316 µM
[14] = second compound 0.0316 µM, first compound 0.1 µM
[15] = second compound 0.0316 µM, first compound 0.316 µM
[16] = second compound 0.0316 µM, first compound 1 µM
[17] = second compound 0.0316 µM, first compound 3.16 µM
[18] = second compound 0.0316 µM, first compound 10 µM
[19] = second compound 0.1 µM, first compound 0.0316 µM
[20] = second compound 0.1 µM, first compound 0.1 µM
[21] = second compound 0.1 µM, first compound 0.316 µM
[22] = second compound 0.1 µM, first compound 1 µM
[23] = second compound 0.1 µM, first compound 3.16 µM
[24] = second compound 0.1 µM, first compound 10 µM
[25] = second compound 0.316 µM, first compound 0.0316 µM
[26] = second compound 0.316 µM, first compound 0.1 µM
[27] = second compound 0.316 µM, first compound 0.316 µM
[28] = second compound 0.316 µM, first compound 1 µM
[29] = second compound 0.316 µM, first compound 3.16 µM
[30] = second compound 0.316 µM, first compound 10 µM
[31] = second compound 1 µM, first compound 0.0316 µM
[32] = second compound 1 µM, first compound 0.1 µM
[33] = second compound 1 µM, first compound 0.316 µM
[34] = second compound 1 µM, first compound 1 µM
[35] = second compound 1 µM, first compound 3.16 µM
[36] = second compound 1 µM, first compound 10 µM
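Also: spheroids exposed to agents for seven days before viability readout.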
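For viability, T/C in this document: 100% = DMSO vehicle control viability.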

CC1(O)CCCC1n1c(=O)c(C(F)F)cc2cnc(NC3CCN(S(C)(=O)=O)CC3)nc21 (stereo not given) + C=CC(=O)N1CCN(c2nc(OCC3CCCN3C)nc3c(F)c(-c4nc(N)cc(C)c4C(F)(F)F)c(Cl)cc23)C(C)C1
5.95: pIC50 (second compound 0.1 µM)
5.97: pIC50 (second compound 0.316 µM)
5.93: pIC50 (second compound 1 µM)
active: viability, T/C [24] 1.02% | viability, T/C [30] 1.06% | viability, T/C [36] 2.1%
inactive: viability, T/C [1] 115% | viability, T/C [2] 125% | viability, T/C [3] 45.5% | viability, T/C [4] 52.3% | viability, T/C [5] 46.1% | viability, T/C [6] 3.51% | viability, T/C [7] 124% | viability, T/C [8] 115% | viability, T/C [9] 49.8% | viability, T/C [10] 60.2% | viability, T/C [11] 49.4% | viability, T/C [12] 3.84% | viability, T/C [13] 113% | viability, T/C [14] 113% | viability, T/C [15] 50.3% | viability, T/C [16] 51.6% | viability, T/C [17] 48.7% | viability, T/C [18] 1.4% | viability, T/C [19] 111% | viability, T/C [20] 114% | viability, T/C [21] 58% | viability, T/C [22] 55.4% | viability, T/C [23] 39.6% | viability, T/C [25] 117% | viability, T/C [26] 107% | viability, T/C [27] 54.8% | viability, T/C [28] 49% | viability, T/C [29] 44.5% | viability, T/C [31] 117% | viability, T/C [32] 108% | viability, T/C [33] 58.1% | viability, T/C [34] 53.2% | viability, T/C [35] 46.3%
6.53: pIC50 (second compound 0.00316 µM)
5.96: pIC50 (second compound 0.0316 µM)
5.87: pIC50 (second compound 0.01 µM)

CCC(CC)c1cc(NC2CCC(N)C2)n2nccc2n1 (stereo not given) + C=CC(=O)N1CCN(c2nc(OCC3CCCN3C)nc3c(F)c(-c4nc(N)cc(C)c4C(F)(F)F)c(Cl)cc23)C(C)C1
5.74: pIC50 (second compound 0.01 µM) | pIC50 (second compound 0.316 µM)
5.75: pIC50 (second compound 0.00316 µM) | pIC50 (second compound 0.0316 µM) | pIC50 (second compound 0.1 µM)
5.73: pIC50 (second compound 1 µM)
active: viability, T/C [5] 0.65% | viability, T/C [6] 2.31% | viability, T/C [11] 0.87% | viability, T/C [12] 2.95% | viability, T/C [17] 0.34% | viability, T/C [18] 0.25% | viability, T/C [23] 0.59% | viability, T/C [24] 0.27% | viability, T/C [29] 1.41% | viability, T/C [30] 1.72% | viability, T/C [35] 2.76% | viability, T/C [36] 2.4%
inactive: viability, T/C [1] 101% | viability, T/C [2] 97.5% | viability, T/C [3] 92.6% | viability, T/C [4] 97.8% | viability, T/C [7] 100% | viability, T/C [8] 102% | viability, T/C [9] 96.6% | viability, T/C [10] 102% | viability, T/C [13] 108% | viability, T/C [14] 100% | viability, T/C [15] 90.2% | viability, T/C [16] 105% | viability, T/C [19] 103% | viability, T/C [20] 95.2% | viability, T/C [21] 96.9% | viability, T/C [22] 104% | viability, T/C [25] 107% | viability, T/C [26] 90.1% | viability, T/C [27] 101% | viability, T/C [28] 105% | viability, T/C [31] 106% | viability, T/C [32] 106% | viability, T/C [33] 96.5% | viability, T/C [34] 114%

CCN1CCN(Cc2ccc(Nc3ncc(F)c(-c4cc(F)c5nc(C)n(C(C)C)c5c4)n3)nc2)CC1 + C=CC(=O)N1CCN(c2nc(OCC3CCCN3C)nc3c(F)c(-c4nc(N)cc(C)c4C(F)(F)F)c(Cl)cc23)C(C)C1
< 6.00: pIC50 (second compound 0.00316 µM) | pIC50 (second compound 0.01 µM) | pIC50 (second compound 0.0316 µM) | pIC50 (second compound 0.1 µM) | pIC50 (second compound 0.316 µM) | pIC50 (second compound 1 µM)
inactive: viability, T/C (second compound 0.00316 µM, first compound 0.00316 µM) 110% | viability, T/C (second compound 0.00316 µM, first compound 0.01 µM) 110% | viability, T/C [1] 121% | viability, T/C [2] 118% | viability, T/C [3] 150% | viability, T/C [4] 65% | viability, T/C (second compound 0.01 µM, first compound 0.00316 µM) 112% | viability, T/C (second compound 0.01 µM, first compound 0.01 µM) 120% | viability, T/C [7] 114% | viability, T/C [8] 123% | viability, T/C [9] 145% | viability, T/C [10] 56.2% | viability, T/C (second compound 0.0316 µM, first compound 0.00316 µM) 113% | viability, T/C (second compound 0.0316 µM, first compound 0.01 µM) 124% | viability, T/C [13] 116% | viability, T/C [14] 119% | viability, T/C [15] 143% | viability, T/C [16] 71.4% | viability, T/C (second compound 0.1 µM, first compound 0.00316 µM) 102% | viability, T/C (second compound 0.1 µM, first compound 0.01 µM) 102% | viability, T/C [19] 118% | viability, T/C [20] 117% | viability, T/C [21] 141% | viability, T/C [22] 64.2% | viability, T/C (second compound 0.316 µM, first compound 0.00316 µM) 114% | viability, T/C (second compound 0.316 µM, first compound 0.01 µM) 109% | viability, T/C [25] 113% | viability, T/C [26] 131% | viability, T/C [27] 131% | viability, T/C [28] 59.3% | viability, T/C (second compound 1 µM, first compound 0.00316 µM) 117% | viability, T/C (second compound 1 µM, first compound 0.01 µM) 116% | viability, T/C [31] 109% | viability, T/C [32] 120% | viability, T/C [33] 154% | viability, T/C [34] 67.7%

C[C@@H](NC(=O)c1ncnc(N)c1Cl)c1ncc(C(=O)Nc2cc(C(F)(F)F)c(Cl)cn2)s1 + C=CC(=O)N1CCN(c2nc(OCC3CCCN3C)nc3c(F)c(-c4nc(N)cc(C)c4C(F)(F)F)c(Cl)cc23)C(C)C1
inactive: viability, T/C [1] 109% | viability, T/C [2] 111% | viability, T/C [3] 120% | viability, T/C [4] 140% | viability, T/C [5] 118% | viability, T/C [6] 53.5% | viability, T/C [7] 106% | viability, T/C [8] 114% | viability, T/C [9] 121% | viability, T/C [10] 120% | viability, T/C [11] 97.1% | viability, T/C [12] 59.9% | viability, T/C [13] 102% | viability, T/C [14] 112% | viability, T/C [15] 114% | viability, T/C [16] 119% | viability, T/C [17] 122% | viability, T/C [18] 59.5% | viability, T/C [19] 118% | viability, T/C [20] 103% | viability, T/C [21] 113% | viability, T/C [22] 114% | viability, T/C [23] 107% | viability, T/C [24] 48.6% | viability, T/C [25] 114% | viability, T/C [26] 104% | viability, T/C [27] 113% | viability, T/C [28] 117% | viability, T/C [29] 116% | viability, T/C [30] 65% | viability, T/C [31] 112% | viability, T/C [32] 98.6% | viability, T/C [33] 111% | viability, T/C [34] 131% | viability, T/C [35] 112% | viability, T/C [36] 61.2%
< 5.00: pIC50 (second compound 0.00316 µM) | pIC50 (second compound 0.01 µM) | pIC50 (second compound 0.0316 µM) | pIC50 (second compound 0.316 µM) | pIC50 (second compound 1 µM)
5.01: pIC50 (second compound 0.1 µM)

Cc1nc(N2CCC3(CC2)COC(C)C3N)c(CO)nc1Sc1ccnc(N)c1Cl (stereo not given) + C=CC(=O)N1CCN(c2nc(OCC3CCCN3C)nc3c(F)c(-c4nc(N)cc(C)c4C(F)(F)F)c(Cl)cc23)C(C)C1
< 5.00: pIC50 (second compound 0.00316 µM) | pIC50 (second compound 0.01 µM) | pIC50 (second compound 0.0316 µM) | pIC50 (second compound 0.1 µM) | pIC50 (second compound 0.316 µM) | pIC50 (second compound 1 µM)
inactive: viability, T/C [1] 93.3% | viability, T/C [2] 101% | viability, T/C [3] 125% | viability, T/C [4] 95.6% | viability, T/C [5] 98.1% | viability, T/C [6] 84.7% | viability, T/C [7] 114% | viability, T/C [8] 111% | viability, T/C [9] 110% | viability, T/C [10] 110% | viability, T/C [11] 90.2% | viability, T/C [12] 83.7% | viability, T/C [13] 107% | viability, T/C [14] 110% | viability, T/C [15] 114% | viability, T/C [16] 99.3% | viability, T/C [17] 109% | viability, T/C [18] 80.6% | viability, T/C [19] 98.7% | viability, T/C [20] 113% | viability, T/C [21] 115% | viability, T/C [22] 119% | viability, T/C [23] 97.3% | viability, T/C [24] 83.2% | viability, T/C [25] 105% | viability, T/C [26] 99% | viability, T/C [27] 129% | viability, T/C [28] 102% | viability, T/C [29] 106% | viability, T/C [30] 73% | viability, T/C [31] 97.7% | viability, T/C [32] 110% | viability, T/C [33] 99.7% | viability, T/C [34] 109% | viability, T/C [35] 89.4% | viability, T/C [36] 75.4%
